Consider three compounds from patent publication US20060005464A1, “Alkyl ethanolamine and biocide combination for hydrocarbon based fuels” (priority 2004, published 2006).

What all share (assay type): cell-based
Experiment [1] concerns Mycobacterium marinum (ATCC # 19420). In words: End-point optical density and MIC, Mycobacterium marinum (660 nm, 72 h). To be noted: pH 8.5; for end-point optical density: 660 nm, after 72 hours. As for the experimental part: (§1) The impact of N-alkylalkanolamines on the control of the bacterial species Mycobacterium smegmatis (ATCC # 19420), a bacteria common in water-oil systems, was evaluated by measuring optical absorbance of samples treated with various alkyl ethanolaminesis DCHA=Dicyclohexylamine, OAE=Octylaminoethanol, ODEA=Octyldiethanolamine. Bacterial concentration was monitored indirectly via optical absorbance at 660 nm. The values reported are end-point optical densities in milliOD units after 48 hours. The media consisted of a standardized solution of clear nutrient broth (Middlebrook 7H10 with OADC supplement), amine, buffer (Tris) and water. The pH was adjusted initially to 8.5 with Tris buffer. The first column in the Table gives the amine concentration in ppm. The final two columns give data for cells that also contained 2 grams per liter of boric acid. In all cases, the values are averages of at least three replicates. The final row of the Table gives an estimate of the concentration range in which the amine in question starts to inhibit the growth of this bacterial species.
The impact of the N-alkylalkanolamines of Example 6 on the control of the bacterial species Mycobacterium marinum (ATCC # 19420), bacteria common in water-oil systems, was evaluated as described above in Example 6. Bacterial concentration in the experimental media was monitored indirectly via optical absorbance at 660 nm. The values reported are end-point optical densities in milliOD units after 72 hours. The media consisted of a standardized solution of clear nutrient broth (Middlebrook 7H10 with OADC supplement), amine, buffer (Tris) and water. The pH was adjusted initially to 8.5 with Tris buffer. The first column in the Table gives the amine concentration in ppm. In all cases, the values are averages of at least three replicates. The final row of the Table gives an estimate of the concentration range in which the amine in question starts to inhibit the growth of this bacterial species.

For experiment [2], the system named is Mycobacterium smegmatis (ATCC # 19420). Briefly: End-point optical density of Mycobacterium smegmatis with N-alkyl alkanolamines (590 nm, 72 h). The note with it: for end-point optical density: 590 nm, after 72 hours, pH 8.5, tetrazolium dye.
Experiment [3] shares this test system. In words: End-point optical density and MIC, Mycobacterium smegmatis (660 nm, 48 h). To be noted: for MIC (estimate of the concentration range in which the amine starts to inhibit growth): 48 hours; for end-point optical density: 660 nm, after 48 hours. As for the experimental part: as §1
Experiment [4] has as its system Pseudomonas aeruginosa (ATCC 10145). In words: Maximum growth slope of Pseudomonas aeruginosa with Proxel DB20 (BIT) plus alkanolamine. The note with it: pH 8.5, TSB, 24 hour.
Protocol: A culture of Pseudomonas aeruginosa (ATCC 10145) at pH=8.5 in TSB (trypticase soy broth) media was prepared. The biocide Proxel DB20 (20% suspension of benzoisothiazolone (BIT) in water), as sold by Avecia, was added at varying concentrations in combination with 1000 ppm or 2000 ppm of the alkanolamines N-butylaminoethanol (BAE), 2-amino-2-methyl-1-propanol (AMP), dibutylaminoethanol (DBAE) or n-octylaminoethanol (OAE). Optical density measurements were taken every 15 minutes over a 24 hour time period (total of 96 data points). The maximum growth slope was calculated by taking the 10 contiguous data points that result in the highest growth slope (units of OD per time) over a 24 hour period. Those 10 data points were subjected to a least squares linear fit to calculate the maximum growth slope.
The test system of experiment [5] is Aureobasidium pullulans (ATCC 12536). In words: End-point optical density of Aureobasidium pullulans with MIT/CMIT plus alkanolamine. To be noted: SAB media pH 8.5. As for the experimental part: The impact of N-alkylalkanolamines on the control of the bacterial species Aureobasidium pullulans (ATCC 12536), a bacteria common in water-oil systems, was evaluated by measuring optical absorbance of samples treated with various concentrations of N-alkyl alkanolamines. […] SAB media at pH 8.5 (Tris buffer) was employed. Table 8 summarizes measurement of end-point optical density after 24 hours and 48 hours: […]

For experiment [6], the system named is mixed enteric bacteria (klebsiella pneumoniae, Proteus vulgarus, Citrobacter sp., Escherichia coli). In words: Maximum growth slope of mixed enteric bacteria culture with GROTAN plus alkanolamine. The note with it: pH 9.0, TSB with emulsified oil, 24 hour. As for the experimental part:
A culture of mixed enteric bacteria (klebsiella pneumoniae, Proteus vulgarus, Citrobacter sp., Escherichia coli) at pH=9.0 in TSB (trypticase soy broth) media mixed with emulsified oil was prepared. A biocide, GROTAN® {78.5% 1,3,5-(2-hydroxyethyl)-s-triazine solution in water} as sold by Troy Chemicals (Florham Park, N.J.) was added at varying concentrations to the culture in combination with 2500 ppm of one of the four alkanolamines, N-butylaminoethanol (BAE), diethanolamine (DEA), diglycolamine (DGA) or 2-amino-2-methyl-1-propanol (AMP). Optical density measurements were taken every 15 minutes over a 24 hour time period (total of 96 data points). The maximum growth slope was calculated by taking the 10 contiguous data points that result in the highest growth slope (units of OD per time) over the 24 hour period. Those 10 data points were subjected to a least squares linear fit to calculate the maximum growth slope.

The test system of experiment [7] is Pseudomonas Aeruginosa (ATCC27853). In words: Microtiter plate growth of Pseudomonas Aeruginosa with amines and GROTAN. The note with it: for growth of Pseudomonas Aeruginosa (Table 1 entry): pH 8.5, 24 hours.
Where [8] appears, read: 2500 ppm amine plus GROTAN 650 ppm.
Where [9] appears, read: 2500 ppm amine plus GROTAN 1650 ppm.

As for `CCCCCCCCNCCO` [OAE, n-octylaminoethanol], the “MIC (estimate of the concentration range in which the amine starts to inhibit growth)” value is reported as 1200-2000 ppm in experiment [1] (72 hours); <500 ppm in experiment [3] (pH 8.5, no boric acid); <500 ppm in experiment [3] (with 2 grams per liter of boric acid). The end-point optical density in experiment [1] (amine 400 ppm) was determined as 0.4 milliOD; in experiment [1] (amine 800 ppm) it was 0.4 milliOD; in experiment [1] (amine 1200 ppm), 0.4 milliOD; in experiment [1] (amine 2000 ppm), 0 milliOD; in experiment [1] (amine 4000 ppm) it was 0 milliOD; in experiment [2] (amine 470 ppm), 0 milliOD. The end-point optical density in experiment [2] (amine 940 ppm) worked out at 0 milliOD; in experiment [2] (amine 1880 ppm), 0 milliOD; in experiment [2] (amine 3750 ppm) it was 0 milliOD; in experiment [2] (amine 7500 ppm), 0 milliOD; in experiment [3] (amine 500 ppm plus 2 grams per liter of boric acid), 0.100 milliOD; in experiment [3] (amine 500 ppm, pH 8.5) it was 0.184 milliOD. Also, the end-point optical density in experiment [3] (amine 1000 ppm plus 2 grams per liter of boric acid) is 0.121 milliOD; in experiment [3] (amine 1000 ppm, pH 8.5), 0.149 milliOD; in experiment [3] (amine 1500 ppm, pH 8.5) it was 0.213 milliOD; in experiment [3] (amine 2000 ppm plus 2 grams per liter of boric acid), 0.015 milliOD; in experiment [3] (amine 2000 ppm, pH 8.5) it was 0.226 milliOD; in experiment [3] (amine 4000 ppm, pH 8.5), 0.205 milliOD. Besides, the end-point optical density in experiment [5] (amine 200 ppm plus 50 ppm MIT/CMIT, 24 hours) is recorded as 0.1; in experiment [5] (amine 200 ppm plus 50 ppm MIT/CMIT, 48 hours), 0.1; in experiment [5] (amine 500 ppm plus 50 ppm MIT/CMIT, 24 hours), 0; in experiment [5] (amine 500 ppm plus 50 ppm MIT/CMIT, 48 hours), 0. In experiment [2] (compared with AMP, conclusion from Table 5), the “effectiveness against Mycobacteria” value is given as “markedly more effective than AMP”. Further, the maximum growth slope is reported as 0.000 OD per time in experiment [4] (amine 1000 ppm plus BIT 150 ppm); 0.000 OD per time in experiment [4] (amine 1000 ppm plus BIT 250 ppm); 0.000 OD per time in experiment [4] (amine 1000 ppm plus BIT 500 ppm); 0.000 OD per time in experiment [4] (amine 1000 ppm, BIT 0 ppm); 0.000 OD per time in experiment [4] (amine 2000 ppm plus BIT 150 ppm); 0.000 OD per time in experiment [4] (amine 2000 ppm plus BIT 250 ppm). For the same compound, the maximum growth slope was found to be 0.000 OD per time in experiment [4] (amine 2000 ppm plus BIT 500 ppm) and 0.000 OD per time in experiment [4] (amine 2000 ppm, BIT 0 ppm).
Turning to `OCCNCCO` [DEA, diethanolamine], the maximum growth slope in experiment [6] (setting [8]) worked out at 0.466 OD per time; in experiment [6] (setting [9]), 0.117 OD per time; in experiment [6] (2500 ppm amine, GROTAN 0 ppm) it was 0.723 OD per time.
Regarding `NCCOCCO` [DGA, diglycolamine, reference compound], the “growth of Pseudomonas Aeruginosa (Table 1 entry)” value was found to be 0.71 in experiment [7] (amine 2000 ppm plus GROTAN 100 ppm); 0.70 in experiment [7] (amine 2000 ppm plus GROTAN 250 ppm); 0.76 in experiment [7] (amine 2000 ppm plus GROTAN 500 ppm); 0.32 in experiment [7] (amine 2000 ppm plus GROTAN 1000 ppm); 0.34 in experiment [7] (amine 2000 ppm plus GROTAN 2000 ppm); 0.76 in experiment [7] (amine 2000 ppm, GROTAN 0 ppm). The “growth of Pseudomonas Aeruginosa (Table 1 entry)” value was determined as 0.70 in experiment [7] (amine 4000 ppm plus GROTAN 100 ppm); 0.69 in experiment [7] (amine 4000 ppm plus GROTAN 250 ppm); 0.36 in experiment [7] (amine 4000 ppm plus GROTAN 500 ppm); 0.29 in experiment [7] (amine 4000 ppm plus GROTAN 1000 ppm); 0.36 in experiment [7] (amine 4000 ppm plus GROTAN 2000 ppm); 0.68 in experiment [7] (amine 4000 ppm, GROTAN 0 ppm). The “enhancement in the biocidal effect of GROTAN” value in experiment [7] (conclusion from Table 1) is reported as “not seen”. In addition, the maximum growth slope in experiment [6] (setting [8]) stood at 0.1955 OD per time; in experiment [6] (setting [9]) it was 0.0725 OD per time; in experiment [6] (2500 ppm amine, GROTAN 0 ppm), 0.796 OD per time.
